Measured values as given in patent publication US10759810B2 (AO “TATKHIMFARMPREPARATY”, priority 2016, dated 2020).
In brackets after ≈: the same amount, converted by molar mass.

Key:
[1] = test system: Pseudomonas aeruginosa ATCC 27853 (museum strain); assay: MIC, serial dilutions in Mueller-Hinton broth; format: cell-based; settings: inoculum 10^7 CFU/ml, gram-negative; for MIC: Pseudomonas aeruginosa, ATCC27853, read-out: MIC, P. aerugenosa
Description: (§1) Measurement of antibacterial activity was carried out on the strains of Staphylococcus aureus ATCC 29213 (museum strain), Staphylococcus epidermidis (clinical isolate), Micrococcus luteus (clinical isolate), Bacillus subtilis 168 (museum strain), Escherichia coli ATCC 25922 (museum strain), Salmonella typhimurium TA100 (museum strain), Pseudomonas aeruginosa ATCC 27853 (museum strain). A comparative assessment of the spectrum of antibacterial action on reference strains and clinical isolates of gram-positive microorganisms was carried out using a micromethod for determining the minimum inhibitory concentration (MIC) using serial dilutions in Mueller-Hinton broth using 96-well sterile plates.
(§2) The first lowest concentration of the antibiotic (from a series of successive dilutions), where bacterial growth is not visually determined, is considered to be the minimum inhibitory concentration (MIC).
(§3) For the preparation of inoculum (infectious material used for artificial contamination), intended for the study of antibacterial activity, was used a pure daily culture of bacteria grown on a dense nutrient medium (agar LB medium). In a sterile isotonic solution of sodium chloride, a suspension of microorganisms was prepared, adjusting the inoculum density to 0.5 according to the McFarland standard (1.5·10^8 CFU/ml). Then, the resulting inoculum was diluted to a concentration of 10^7 CFU/ml with LB-broth. The inoculum was used for 15 minutes after preparation; the purity of the bacterial strains was monitored before each experiment.
(§4) 100 μl of Muller-Hinton broth was added to the wells of each plate; the test base was introduced into the first well at a concentration of 128 μg/ml in a volume of 100 μl and its concentration was adjusted to 0.25 μg/ml by consecutive two-fold dilution. […] Each preparation in the experiment was titrated three times. […] In addition, the purity of nutrient media and solvents was monitored. The plates were incubated in a thermostat at […] for 24 hours.
(§5) The growth of cultures was assessed visually, comparing the growth of microorganisms in the presence of test compounds with the growth of culture without them.

[2] = test system: Staphylococcus epidermidis (clinical isolate); assay: MIC, serial dilutions in Mueller-Hinton broth; format: cell-based; settings: inoculum 10^7 CFU/ml, gram-positive; for MIC: Staphylococcus epidermidis, read-out: MIC, S. epidermidis
Description: as §1, §2, §3, §4, §5

[3] = test system: Bacillus subtilis 168 (museum strain); assay: MIC, serial dilutions in Mueller-Hinton broth; format: cell-based; settings: inoculum 10^7 CFU/ml, gram-positive; for MIC: Bacillus subtilis, read-out: MIC, B. subtilis
Description: as §1, §2, §3, §4, §5

[4] = test system: Escherichia coli ATCC 25922 (museum strain); assay: MIC, serial dilutions in Mueller-Hinton broth; format: cell-based; settings: inoculum 10^7 CFU/ml, gram-negative; for MIC: Escherichia coli, ATCC25922, read-out: MIC, E. coli
Description: as §1, §2, §3, §4, §5

[5] = test system: Micrococcus luteus (clinical isolate); assay: MIC, serial dilutions in Mueller-Hinton broth; format: cell-based; settings: inoculum 10^7 CFU/ml, gram-positive; for MIC: Micrococcus luteus, read-out: MIC, M. luteus
Description: as §1, §2, §3, §4, §5

[6] = test system: Salmonella typhimurium TA100 (museum strain); assay: MIC, serial dilutions in Mueller-Hinton broth; format: cell-based; settings: inoculum 10^7 CFU/ml, gram-negative; for MIC: Salmonella enterica, TYPHIMURIUM, read-out: MIC, S. typhimurium
Description: as §1, §2, §3, §4, §5

[7] = test system: Staphylococcus aureus ATCC 29213 (museum strain); assay: MIC, serial dilutions in Mueller-Hinton broth; format: cell-based; settings: inoculum 10^7 CFU/ml, gram-positive; for MIC: Staphylococcus aureus, ATCC29213, read-out: MIC, S. aureus
Description: as §1, §2, §3, §4, §5

S. aureus MRSA 1053 = assay: MIC on clinical strain; format: cell-based, Staphylococcus aureus; settings: inoculum 10^7 CFU/ml
Description: as §1, §2, §3, §4, §5

S. aureus MRSA 1173 = assay: MIC on clinical strain; format: cell-based, Staphylococcus aureus; settings: inoculum 10^7 CFU/ml
Description: as §1, §2, §3, §4, §5

S. aureus MRSA 983 = assay: MIC on clinical strain; format: cell-based, Staphylococcus aureus; settings: inoculum 10^7 CFU/ml
Description: as §1, §2, §3, §4, §5

S. aureus MRSA 1163 = assay: MIC on clinical strain; format: cell-based, Staphylococcus aureus; settings: inoculum 10^7 CFU/ml
Description: as §1, §2, §3, §4, §5

S. aureus MRSA 1130 = assay: MIC on clinical strain; format: cell-based, Staphylococcus aureus; settings: inoculum 10^7 CFU/ml
Description: as §1, §2, §3, §4, §5

S. aureus MRSA 2020 = assay: MIC on clinical strain; format: cell-based, Staphylococcus aureus; settings: inoculum 10^7 CFU/ml
Description: as §1, §2, §3, §4, §5

S. aureus MRSA 967 = assay: MIC on clinical strain; format: cell-based, Staphylococcus aureus; settings: inoculum 10^7 CFU/ml
Description: as §1, §2, §3, §4, §5

S. aureus MRSA 1143 = assay: MIC on clinical strain; format: cell-based, Staphylococcus aureus; settings: inoculum 10^7 CFU/ml
Description: as §1, §2, §3, §4, §5

S. aureus MRSA 1168 = assay: MIC on clinical strain; format: cell-based, Staphylococcus aureus; settings: inoculum 10^7 CFU/ml
Description: as §1, §2, §3, §4, §5

S. aureus MRSA 1131 = assay: MIC on clinical strain; format: cell-based, Staphylococcus aureus; settings: inoculum 10^7 CFU/ml
Description: as §1, §2, §3, §4, §5

S. aureus MRSA 981 = assay: MIC on clinical strain; format: cell-based, Staphylococcus aureus; settings: inoculum 10^7 CFU/ml
Description: as §1, §2, §3, §4, §5

S. aureus MRSA 1065 = assay: MIC on clinical strain; format: cell-based, Staphylococcus aureus; settings: inoculum 10^7 CFU/ml
Description: as §1, §2, §3, §4, §5

Row | SMILES | MIC, P. aerugenosa [1] [µg/mL] | MIC, S. epidermidis [2] [µg/mL] | MIC, B. subtilis [3] [µg/mL] | MIC, E. coli [4] [µg/mL] | MIC, M. luteus [5] [µg/mL] | MIC, S. typhimurium [6] [µg/mL] | MIC, S. aureus [7] [µg/mL] | also measured
1 | CO/N=C(\C(=O)N[C@@H]1C(=O)N2C(C(=O)O)=C(CSc3nc(=O)c(O)nn3C)CS[C@H]12)c1csc(N)n1 [Ceftriaxon, ceftriaxone] |  |  |  |  |  |  |  | The value of the MIC, S. aureus MRSA 1053 (S. aureus MRSA 1053): >64 µg/mL; The value of the MIC, S. aureus MRSA 1173 (S. aureus MRSA 1173): >64 µg/mL; The value of the MIC, S. aureus MRSA 983 (S. aureus MRSA 983): >64 µg/mL; The value of the MIC, S. aureus MRSA 1163 (S. aureus MRSA 1163): >64 µg/mL; The value of the MIC, S. aureus MRSA 1130 (S. aureus MRSA 1130): >64 µg/mL; The value of the MIC, S. aureus MRSA 2020 (S. aureus MRSA 2020): 2 µg/mL; The value of the MIC, S. aureus MRSA 967 (S. aureus MRSA 967): >64 µg/mL; The value of the MIC, S. aureus MRSA 1143 (S. aureus MRSA 1143): >64 µg/mL; The value of the MIC, S. aureus MRSA 1168 (S. aureus MRSA 1168): 0.5 µg/mL; The value of the MIC, S. aureus MRSA 1131 (S. aureus MRSA 1131): >64 µg/mL; The value of the MIC, S. aureus MRSA 981 (S. aureus MRSA 981): >64 µg/mL; The value of the MIC, S. aureus MRSA 1065 (S. aureus MRSA 1065): >64 µg/mL
2 | CCCC1OCc2c(CN3CCN(c4cc5c(cc4F)c(=O)c(C(=O)O)cn5C4CC4)CC3)cnc(C)c2O1 (stereo not shown) [Compound I-7, 1-cyclopropyl-6-fluoro-7-(4-((8-methyl-2-propyl-4H-[1,3]dioxino-[4,5-c]pyridine-5-yl)methyl)piperazinyl)-4-oxo-1,4-dihydroquinolin-3-carboxylic acid] | >64 | 64 (≈ 119 µM) | <2 | >64 | 64 (≈ 119 µM) | 4 (≈ 7.45 µM) | 64 (≈ 119 µM) | 
3 | Cc1ncc(CN2CCN(c3cc4c(cc3F)c(=O)c(C(=O)O)cn4C3CC3)CC2)c2c1OC(C)(C)OC2 [Compound I-1, 1-cyclopropyl-6-fluoro-7-(4-((2,2,8-trimethyl-4H-[1,3]dioxino-[4,5-c]pyridine-5-yl)methyl)piperazinyl)-4-oxo-1,4-dihydroquinolin-3-carboxylic acid] | >64 | 16 (≈ 30.6 µM) | <2 | 64 (≈ 122 µM) | 32 (≈ 61.2 µM) | 4 (≈ 7.65 µM) | 32 (≈ 61.2 µM) | 
4 | COc1c(N2C[C@@H]3CCCN[C@@H]3C2)c(F)cc2c(=O)c(C(=O)O)cn(C3CC3)c12 [Moxifloxacin, moxifloxacin, reference compound] |  |  |  |  |  |  |  | MIC [1]: 8 µg/mL (≈ 19.9 µM); MIC [2]: 4 µg/mL (≈ 9.96 µM); MIC [3]: < 2 µg/mL; MIC [4]: 2 µg/mL (≈ 4.98 µM); MIC [5]: 4 µg/mL (≈ 9.96 µM); MIC [6]: 0.5 µg/mL (≈ 1.25 µM); MIC [7]: 1 µg/mL (≈ 2.49 µM)
5 | CCCCCCCCC1OCc2c(CN3CCN(c4cc5c(cc4F)c(=O)c(C(=O)O)cn5C4CC4)CC3)cnc(C)c2O1 (stereo not shown) [Compound I-8, 1-cyclopropyl-6-fluoro-7-(4-((8-methyl-2-octyl-4H-[1,3]dioxino-[4,5-c]pyridine-5-yl)methyl)piperazinyl)-4-oxo-1,4-dihydroquinolin-3-carboxylic acid] | >64 | 64 (≈ 105 µM) | <2 | >64 | 64 (≈ 105 µM) | 4 (≈ 6.59 µM) | 32 (≈ 52.7 µM) | 
6 | Cc1ncc(CSCCN2CCN(c3cc4c(cc3F)c(=O)c(C(=O)O)cn4C3CC3)CC2)c2c1OC(C)(C)OC2 [Compound I-4, 1-cyclopropyl-6-fluoro-7-(4-(2-(((2,2,8-trimethyl-4H-[1,3]dioxino-[4,5-c]pyridine-5-yl)methyl)sulfanyl)ethyl)piperazinyl)-4-oxo-1,4-dihydroquinolin-3-carboxylic acid] | >64 | 32 (≈ 54.9 µM) | <2 | 64 (≈ 110 µM) | 8 (≈ 13.7 µM) | 4 (≈ 6.86 µM) | 16 (≈ 27.5 µM) | 
7 | Cc1ncc(CSCCN2CCN(c3cc4c(cc3F)c(=O)c(C(=O)O)cn4C3CC3)CC2)c(CO)c1O [Compound I-5, 1-cyclopropyl-6-fluoro-7-(4-(2-(((5-hydroxy-4-hydroxymethyl-6-methylpyridine-3-yl)methyl)sulfanyl)ethyl)piperazinyl)-4-oxo-1,4-dihydroquinolin-3-carboxylic acid] | 32 (≈ 59 µM) | 8 (≈ 14.7 µM) | <2 | 8 (≈ 14.7 µM) | 8 (≈ 14.7 µM) | 4 (≈ 7.37 µM) | 8 (≈ 14.7 µM) | 
8 | Cc1ncc(CN2CCN(c3cc4c(cc3F)c(=O)c(C(=O)O)cn4C3CC3)CC2)c2c1OCOC2 [Compound I-12, 1-cyclopropyl-6-fluoro-7-(4-((8-methyl-4H-[1,3]dioxino [4,5-c]pyridine-5-yl)methyl)piperazine-1-yl)-4-oxo-1,4-dihydroquinolin-3-carboxylic acid] |  |  |  |  |  |  |  | MIC [1]: 32 µg/mL (≈ 64.7 µM); MIC [2]: 0.5 µg/mL (≈ 1.01 µM); MIC [3]: < 2 µg/mL; MIC [4]: 8 µg/mL (≈ 16.2 µM); MIC [5]: 16 µg/mL (≈ 32.4 µM); MIC [6]: 0.5 µg/mL (≈ 1.01 µM); MIC [7]: 1 µg/mL (≈ 2.02 µM)

The next lines start with results.

Row | MIC, P. aerugenosa [1] [µg/mL] | MIC, S. epidermidis [2] [µg/mL] | MIC, B. subtilis [3] [µg/mL] | MIC, E. coli [4] [µg/mL] | MIC, M. luteus [5] [µg/mL] | MIC, S. typhimurium [6] [µg/mL] | MIC, S. aureus [7] [µg/mL] | SMILES | also measured
9 | >64 | 8 (≈ 14.5 µM) | <2 | 64 (≈ 116 µM) | 8 (≈ 14.5 µM) | 4 (≈ 7.24 µM) | 8 (≈ 14.5 µM) | Cc1nc(CN2CCN(c3cc4c(cc3F)c(=O)c(C(=O)O)cn4C3CC3)CC2)c(CO)c2c1OC(C)(C)OC2 [Compound I-10, 1-cyclopropyl-6-fluoro-7-(4-((5-hydroxymethyl-2,2,8-trimethyl-4H-[1,3]dioxino [4,5-c]pyridine-6-yl)methyl)piperazinyl)-4-oxo-1,4-dihydroquinolin-3-carboxylic acid] | 
10 | >64 | 32 (≈ 62.4 µM) | <2 | 64 (≈ 125 µM) | 32 (≈ 62.4 µM) | 4 (≈ 7.8 µM) | 64 (≈ 125 µM) | Cc1nc(CN2CCN(c3cc4c(cc3F)c(=O)c(C(=O)O)cn4C3CC3)CC2)c(CO)c(CO)c1O [Compound I-11, 1-cyclopropyl-6-fluoro-7-(4-((5-hydroxy-3,4-bis(hydroxymethyl)-6-methylpyridine-2-yl)methyl)piperazinyl)-4-oxo-1,4-dihydroquinolin-3-carboxylic acid] | 
11 | >64 | 8 (≈ 15.7 µM) | <2 | >64 | 8 (≈ 15.7 µM) | 4 (≈ 7.87 µM) | 8 (≈ 15.7 µM) | Cc1ncc(CN2CCN(c3cc4c(cc3F)c(=O)c(C(=O)O)cn4C3CC3)CC2)c2c1OC(C)OC2 (stereo not shown) [Compound I-6, 1-cyclopropyl-6-fluoro-7-(4-((2,8-dimethyl-4H-[1,3]dioxino-[4,5-c]pyridine-5-yl)methyl)piperazinyl)-4-oxo-1,4-dihydroquinolin-3-carboxylic acid] | 
